Source: ChEMBL document CHEMBL5316359, “Strophioblachins A-K, Structurally Intriguing Diterpenoids from Strophioblachia fimbricalyx with Potential Anticardiac Hypertrophic Inhibitory Activity” (J Nat Prod, 2023)
Calls of active or inactive are those of the source. No cut-off for these calls is given here.

Tests used:
[1] = Cytotoxicity against neonatal Sprague-Dawley rat cardiomyocyte assessed as reduction in ANP expression incubated for 48 hrs by ELISA assay; format: toxicity, cell-based, Cardiac muscle cell; details: neonatal rat cardiomyocytes
Cardiac muscle cell [2] = assay: Anticardiac hypertrophic activity in phenylephrine-induced hypertrophy in neonatal Sprague-Dawley rat cardiomyocyte assessed as decrease in ANP protein expression at 5 to 50 uM preincubated for 12 hrs followed by phenylephrine stimulation and measured after 48 hrs by Western blot analysis; format: functional, cell-based; details: dose 5-50 µM, time 60.0 hrs
Cardiac muscle cell [3] = assay: Anticardiac hypertrophic activity in phenylephrine-induced hypertrophy in neonatal Sprague-Dawley rat cardiomyocyte assessed as decrease in NPPA mRNA expression at 5 to 50 uM preincubated for 12 hrs followed by phenylephrine stimulation and measured after 48 hrs by qRT-PCR analysis; format: functional, cell-based; details: dose 5-50 µM, time 60.0 hrs
Cardiac muscle cell [4] = assay: Anticardiac hypertrophic activity in phenylephrine-induced hypertrophy in neonatal Sprague-Dawley rat cardiomyocyte assessed as decrease in NPPB mRNA expression at 5 to 50 uM preincubated for 12 hrs followed by phenylephrine stimulation and measured after 48 hrs by qRT-PCR analysis; format: functional, cell-based; details: dose 5-50 µM, time 60.0 hrs

With `C=C[C@@]12C=C(C)C(=O)C=C1[C@]1(C)CC[C@@H](O)C(C)(C)[C@H]1CC2` the IC50 at 48 h [1] was 41.8 µM, the Activity (Cardiac muscle cell [2]) was “Active” and the Activity (Cardiac muscle cell [3]) was “Dose-Dependent Effect”. The Activity (Cardiac muscle cell [4]) was “Dose-Dependent Effect”.
In the case of `COC(=O)c1cc2c(cc1OC)[C@]1(C)CCC(=O)C(C)(C)C1=C(O)C2=O`, the IC50 at 48 h [1] is reported as 52.3 µM, the Activity (Cardiac muscle cell [2]) is reported as “Active” and the Activity (Cardiac muscle cell [3]) is reported as “Dose-Dependent Effect”. The Activity (Cardiac muscle cell [4]) was “Dose-Dependent Effect”.
